Where a name gives a salt, the structure may show the parent alone. Read-outs that look alike come from different tables or passages of the source.
Experiments:
cancer cell lines = assay: Cell viability analysis (WST-1) on cancer cell lines; type: cell-based, human; conditions: drug 10 μM, 72 hours, WST-1; Table 3
[1] = tested on: HI650 (Lung Adenocarcinoma); assay: Cell viability analysis, lung cancer HI650; type: cell-based, human; conditions: Homo sapiens, NCI-H1650, 72 h
[2] = tested on: A549 (Lung Adenocarcinoma); assay: Cell viability analysis, lung cancer A549; type: cell-based, human; conditions: Homo sapiens, A549, 72 h
[3] = tested on: AGS (Gastric Adenocarcinoma); assay: Cell viability analysis, gastric cancer AGS; type: cell-based, human; conditions: Homo sapiens, 72 h
[4] = tested on: MKN-45 (Gastric Adenocarcinoma); assay: Cell viability analysis, gastric cancer MKN-45; type: cell-based, human; conditions: Homo sapiens, MKN-45, 72 h
[5] = tested on: HepG2 (Hepatocellular Carcinoma); assay: Cell viability analysis, hepatic cancer HepG2; type: cell-based, human; conditions: Homo sapiens, HepG2, 72 h
[6] = tested on: LoVo (Colorectal Adenocarcinoma); assay: Cell viability analysis, colon cancer LoVo; type: cell-based, human; conditions: Homo sapiens, LoVo, 72 h, read-out: cell viability (survival rate), LoVo, drug 10 μM, 72 hours, WST-1, OD450 nm
[7] = tested on: A375 (Amelanotic Melanoma); assay: Cell viability analysis, skin cancer A375; type: cell-based, human; conditions: Homo sapiens, A-375, 72 h
[8] = tested on: PC3 (p53−) (Prostate Adenocarcinoma); assay: Cell viability analysis, prostate cancer PC3; type: cell-based, human; conditions: Homo sapiens, 72 h
[9] = tested on: TSGH-8301 (Urinary Bladder Carcinoma); assay: Cell viability analysis, bladder cancer TSGH-8301; type: cell-based, human; conditions: Homo sapiens, 72 h
[10] = tested on: MCF7 (Mammary Gland, Adenocarcinoma); assay: Cell viability analysis, breast cancer MCF7; type: cell-based, human; conditions: Homo sapiens, MCF7, 72 h
[11] = tested on: HL-60 (Acute Promyelocytic Leukemia); assay: Cell viability analysis, leukemia HL-60; type: cell-based, human; conditions: Homo sapiens, HL-60, 72 h
[12] = tested on: HCT116 (p53+) (Colorectal Carcinoma); assay: cells; conditions: Homo sapiens, HCT-116, 72 h, read-out: cell viability (survival rate), HCT116
[13] = tested on: HeLa (Cervix Adenocarcinoma); assay: Cell viability analysis, cervical cancer HeLa; type: cell-based, human; conditions: Homo sapiens, HeLa, 72 h
[14] = read-out: cell viability (survival rate), H1650, drug 10 μM, 72 hours, WST-1, OD450 nm
[15] = read-out: cell viability (survival rate), A549, drug 10 μM, 72 hours, WST-1, OD450 nm
[16] = read-out: cell viability (survival rate), AGS, drug 10 μM, 72 hours, WST-1, OD450 nm
[17] = read-out: cell viability (survival rate), MKN-45, drug 10 μM, 72 hours, WST-1, OD450 nm
[18] = read-out: cell viability (survival rate), HepG2, drug 10 μM, 72 hours, WST-1, OD450 nm
[19] = read-out: cell viability (survival rate), A375, drug 10 μM, 72 hours, WST-1, OD450 nm
[20] = read-out: cell viability (survival rate), PC3, drug 10 μM, 72 hours, WST-1, OD450 nm
[21] = read-out: cell viability (survival rate), TSGH, drug 10 μM, 72 hours, WST-1, OD450 nm
[22] = read-out: cell viability (survival rate), MCF7, drug 10 μM, 72 hours, WST-1, OD450 nm
[23] = read-out: cell viability (survival rate), HL-60, drug 10 μM, 72 hours, WST-1, OD450 nm
[24] = read-out: cell viability (survival rate), HeLa, drug 10 μM, 72 hours, WST-1, OD450 nm
[25] = drug 10 μM, 72 hours, WST-1, OD450 nm, read-out: cell viability (survival rate), H1650
[26] = drug 10 μM, 72 hours, WST-1, OD450 nm, read-out: cell viability (survival rate), A549
[27] = drug 10 μM, 72 hours, WST-1, OD450 nm, read-out: cell viability (survival rate), AGS
[28] = drug 10 μM, 72 hours, WST-1, OD450 nm, read-out: cell viability (survival rate), MKN-45
[29] = drug 10 μM, 72 hours, WST-1, OD450 nm, read-out: cell viability (survival rate), HepG2
[30] = drug 10 μM, 72 hours, WST-1, OD450 nm, read-out: cell viability (survival rate), A375
[31] = drug 10 μM, 72 hours, WST-1, OD450 nm, read-out: cell viability (survival rate), HeLa
[32] = drug 10 μM, 72 hours, WST-1, OD450 nm, read-out: cell viability (survival rate), PC3
[33] = drug 10 μM, 72 hours, WST-1, OD450 nm, read-out: cell viability (survival rate), TSGH
[34] = drug 10 μM, 72 hours, WST-1, OD450 nm, read-out: cell viability (survival rate), MCF7
[35] = drug 10 μM, 72 hours, WST-1, OD450 nm, read-out: cell viability (survival rate), HL-60

SMILES	inhibition effect on different cancer cell lines (cancer cell lines)	viability at 10 µM [1, 14] [%]	viability at 10 µM [2, 15] [%]	viability at 10 µM [3, 16] [%]	viability at 10 µM [4, 17] [%]	viability at 10 µM [5, 18] [%]	viability at 10 µM [6] [%]	viability at 10 µM [7, 19] [%]	viability at 10 µM [8, 20] [%]	viability at 10 µM [9, 21] [%]	viability at 10 µM [10, 22] [%]	viability at 10 µM [11, 23] [%]	viability at 10 µM [12] [%]	viability at 10 µM [13, 24] [%]	viability at 10 µM [1, 25] [%]	viability at 10 µM [2, 26] [%]	viability at 10 µM [3, 27] [%]	viability at 10 µM [4, 28] [%]	viability at 10 µM [5, 29] [%]	viability at 10 µM [7, 30] [%]	further results
CN(C)c1ccc(O)c2c1C[C@H]1C[C@H]3[C@H](N(C)C)C(O)=C(C(N)=O)C(=O)[C@@]3(O)C(O)=C1C2=O [Minocycline HCl]	significant inhibition effect	74	42.5	87.6	95	103	87.3	81.6	53.8	60.4	49.9	68.1	105	–	–	–	–	–	–	–	–
CO[C@@]1(NC(=O)C(C(=O)O)c2ccc(O)cc2)C(=O)N2C(C(=O)O)=C(CSc3nnnn3C)CO[C@@H]21 (stereo partly drawn) [Moxalactam Disodium]	significant inhibition effect	66.9	76.6	76.9	110	79.1	94	80.8	95	55.9	80.7	–	73.9	61.3	–	–	–	–	–	–	–
CC(=O)Nc1ncc([N+](=O)[O-])s1 [Nithiamide]	–	–	–	–	–	–	89.8	–	–	–	–	–	86.9	–	67.1	39.3	102	76.7	94.8	96.7	viability at 10 µM [13, 31]: 83%; viability at 10 µM [8, 32]: 74.5%; viability at 10 µM [9, 33]: 122%; viability at 10 µM [10, 34]: 65.5%; viability at 10 µM [11, 35]: 102%
CN(C)[C@@H]1C(O)=C(C(=O)NCN2CCCC2)C(=O)[C@@]2(O)C(O)=C3C(=O)c4c(O)cccc4[C@@](C)(O)[C@H]3C[C@@H]12 [Rolitetracycline]	–	113	112	61.1	95.7	71.2	86.1	82.5	105	54.3	88.8	102	67.7	53.9	–	–	–	–	–	–	–
OC[C@H]1O[C@H](O[C@]2(CCl)O[C@H](CCl)[C@@H](O)[C@@H]2O)[C@H](O)[C@@H](O)[C@H]1Cl [Sucralose]	–	–	–	–	–	–	73.8	–	–	–	–	–	54.8	–	72	74.3	66.7	94.1	95.3	83.3	viability at 10 µM [13, 31]: 77.9%; viability at 10 µM [8, 32]: 78.8%; viability at 10 µM [9, 33]: 94.3%; viability at 10 µM [10, 34]: 71.2%; viability at 10 µM [11, 35]: 88.5%
NC(CO)(CO)CO [Trometamol]	–	95.4	79.5	78.1	88.3	96.7	68	126	97	102	98.8	91.3	90.4	90.9	–	–	–	–	–	–	–
